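1) Cells in 96-well plates. 2) Compound, 48 h, 5 concentrations. 3) Linear interpolation between surrounding doses. 4) Unreached endpoint = highest concentration. GI50: concentration for 50% inhibition of growth. TGI denotes the concentration required for complete inhibition of growth.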
Legend:
Test in all cases: DTP human tumour cell line panel, 48 h
NCI-H226 lung = system: NCI-H226 lung
NCI-H23 lung = system: NCI-H23 lung
NCI-H460 lung = system: NCI-H460 lung
NCI-H522 lung = system: NCI-H522 lung
NCI/ADR-RES ovarian = system: NCI/ADR-RES ovarian
OVCAR-3 ovarian = system: OVCAR-3 ovarian
OVCAR-4 ovarian = system: OVCAR-4 ovarian
OVCAR-5 ovarian = system: OVCAR-5 ovarian
OVCAR-8 ovarian = system: OVCAR-8 ovarian
PC-3 prostate = system: PC-3 prostate
RPMI-8226 leukemia = system: RPMI-8226 leukemia
RXF 393 renal = system: RXF 393 renal
SF-268 CNS = system: SF-268 CNS
SF-295 CNS = system: SF-295 CNS
SF-539 CNS = system: SF-539 CNS
SK-MEL-2 melanoma = system: SK-MEL-2 melanoma
SK-MEL-28 melanoma = system: SK-MEL-28 melanoma
SK-MEL-5 melanoma = system: SK-MEL-5 melanoma
SK-OV-3 ovarian = system: SK-OV-3 ovarian
SN12C renal = system: SN12C renal
SNB-19 CNS = system: SNB-19 CNS
SNB-75 CNS = system: SNB-75 CNS
SW-620 colon = system: SW-620 colon
T-47D breast = system: T-47D breast
TK-10 renal = system: TK-10 renal
U251 CNS = system: U251 CNS
UACC-257 melanoma = system: UACC-257 melanoma
UACC-62 melanoma = system: UACC-62 melanoma
UO-31 renal = system: UO-31 renal

Compound `Cn1cc(NC(=O)c2cc(NC(=O)c3ccc(C#Cc4ccccc4)cc3)cn2C)cc1C(=O)NCCCN1CCOCC1` has a GI50 (NCI-H226 lung) of 16.6 µM, a TGI (NCI-H226 lung) of over 32.5 µM and a GI50 (NCI-H23 lung) of 14.3 µM. The TGI (NCI-H23 lung) was over 32.5 µM, the GI50 (NCI-H460 lung) was 10.1 µM and the TGI (NCI-H460 lung) was over 32.5 µM. For the same compound, the GI50 (NCI-H522 lung) was 8.72 µM, the TGI (NCI-H522 lung) was over 32.5 µM and the GI50 (NCI/ADR-RES ovarian) was 7.66 µM. The TGI (NCI/ADR-RES ovarian) was 23.8 µM, the GI50 (OVCAR-3 ovarian) was 6.21 µM and the TGI (OVCAR-3 ovarian) was over 32.5 µM. The GI50 (OVCAR-4 ovarian) was 25.6 µM, the TGI (OVCAR-4 ovarian) was over 32.5 µM and the GI50 (OVCAR-5 ovarian) was over 32.5 µM. For the same compound, the TGI (OVCAR-5 ovarian) was over 32.5 µM, the GI50 (OVCAR-8 ovarian) was 6.14 µM and the TGI (OVCAR-8 ovarian) was 20.2 µM. It also gave a GI50 (PC-3 prostate) of 12.2 µM, a TGI (PC-3 prostate) of over 32.5 µM and a GI50 (RPMI-8226 leukemia) of 5.61 µM. It also gave a TGI (RPMI-8226 leukemia) of 32.3 µM, a GI50 (RXF 393 renal) of 2.55 µM and a TGI (RXF 393 renal) of 21.1 µM. For the same compound, the GI50 (SF-268 CNS) was 12.2 µM, the TGI (SF-268 CNS) was over 32.5 µM and the GI50 (SF-295 CNS) was 12.6 µM. For the same compound, the TGI (SF-295 CNS) was over 32.5 µM, the GI50 (SF-539 CNS) was 6.37 µM and the TGI (SF-539 CNS) was 14.5 µM. It also gave a GI50 (SK-MEL-2 melanoma) of 6.15 µM, a TGI (SK-MEL-2 melanoma) of 14.4 µM and a GI50 (SK-MEL-28 melanoma) of over 32.5 µM. It also gave a TGI (SK-MEL-28 melanoma) of over 32.5 µM, a GI50 (SK-MEL-5 melanoma) of 11.3 µM and a TGI (SK-MEL-5 melanoma) of over 32.5 µM. It also gave a GI50 (SK-OV-3 ovarian) of over 32.5 µM, a TGI (SK-OV-3 ovarian) of over 32.5 µM and a GI50 (SN12C renal) of 7.08 µM. It also gave a TGI (SN12C renal) of over 32.5 µM, a GI50 (SNB-19 CNS) of over 32.5 µM and a TGI (SNB-19 CNS) of over 32.5 µM. For the same compound, the GI50 (SNB-75 CNS) was 6.71 µM, the TGI (SNB-75 CNS) was over 32.5 µM and the GI50 (SW-620 colon) was 9.25 µM. The TGI (SW-620 colon) was over 32.5 µM, the GI50 (T-47D breast) was 5.88 µM and the TGI (T-47D breast) was over 32.5 µM. It also gave a GI50 (TK-10 renal) of over 32.5 µM, a TGI (TK-10 renal) of over 32.5 µM and a GI50 (U251 CNS) of 9.01 µM. The TGI (U251 CNS) was over 32.5 µM, the GI50 (UACC-257 melanoma) was 18.9 µM and the TGI (UACC-257 melanoma) was over 32.5 µM. It also gave a GI50 (UACC-62 melanoma) of 11 µM, a TGI (UACC-62 melanoma) of over 32.5 µM and a GI50 (UO-31 renal) of 14 µM. For the same compound, the TGI (UO-31 renal) was over 32.5 µM.

Reference: PubChem BioAssay (NCI)
